Reference: patent EP0084597A1, “Triazole and imidazole derivatives and pharmaceutical preparations containing them” (BAYER AG, priority 1981, dated 1983)
≈ marks a conversion by molar mass, not a printed value.

Assays:
Trichophyton mentagr. = test: Antimycotic in-vitro activity, serial dilution test (MIC); format: cell-based, Trichophyton mentagrophytes; settings: Sabouraud medium, 20°C, 96 hours, inoculum 5 x 10^4 germs/ml; for MIC: Trichophyton, read-out: MHK-Werte in γ/ml Nährmedium, Trichophyton mentagr.
Procedure: (§1) Die in-vitro-Prüfungen wurden im Reihenverdünnungstest mit Keiminokula von durchschnittlich 5 x 10^4 Keimen/ml Substrat durchgeführt. Als Nährmedium dienten • a) für Dermatophyten und Schimmelpilze: Sabourand's milieu d'epreuve • b) für Hefen: Fleischextrakt-Traubenzucker-Bouillon.
(§2) Die Bebrütungstemperatur betrug 20°C, die Bebrütungsdauer lag bei 24 bis 96 Stunden bei Hefen und 96 Stunden bei Dermatophyten und Schimmelpilzen.

Candida albicans = test: as above; format: cell-based; settings: meat extract-glucose broth, 20°C, 24 to 96 hours, inoculum 5 x 10^4 germs/ml; for MIC: Candida albicans, read-out: MHK-Werte in γ/ml Nährmedium, Candida albicans
Procedure: as §1, §2

Microsporum canis = test: as above; format: cell-based; settings: Sabouraud medium, 20°C, inoculum 5 x 10^4 germs/ml; for MIC: Microsporum canis, 96 h, read-out: MHK-Werte in γ/ml Nährmedium, Microsporum canis; for MHK-Werte in γ/ml Nährmedium, Microsporum canis: 96 hours
Procedure: as §1, §2

Torulopsis glabrata = test: as above; format: cell-based; settings: meat extract-glucose broth, 20°C, 24 to 96 hours, inoculum 5 x 10^4 germs/ml; for MIC: Nakaseomyces glabratus, read-out: MHK-Werte in γ/ml Nährmedium, Torulopsis glabrata
Procedure: as §1, §2

Aspergillus fumig. = test: as above; format: cell-based, Aspergillus fumigatus; settings: Sabouraud medium, 20°C, inoculum 5 x 10^4 germs/ml; for MIC: Aspergillus, 96 h, read-out: MHK-Werte in γ/ml Nährmedium, Aspergillus fumig.
Procedure: as §1, §2

Candida-Zellen = test: Antimycotic in-vivo activity (oral) in mouse candidosis; design: species or system Mäuse vom Typ SPF-CF1; key: +++++: sehr gute Wirkung = 90 % Ueberlebende am 6.Tag p.i.; ++++: gute Wirkung = 80 % Ueberlebende am 6.Tag p.i.; +++: Wirkung = 60 % Ueberlebende am 6.Tag p.i.; ++: schwache Wirkung = 40 % Ueberlebende am 6.Tag p.i.; +: Spur Wirkung; k.W.: keine Wirkung
Procedure: Mäuse vom Typ SPF-CF1 wurden intravenös mit 1 - 2 x 10^6 logarithmisch wachsenden Candida-Zellen, die in physiologischer Kochsalzlösung suspendiert werden, infiziert. Eine Stunde vor und sieben Stunden nach der Infektion werden die Tiere mit jeweils 50 - 100 mg/kg Körpergewicht der Präparate oral behandelt.
Uhbehandelte Tiere starben 3 bis 6 Tage post infektionem. Die Ueberlebensrate am 6.Tag post infektionem betrug bei uhbehandelten Kontrolltieren etwa 5 %.
• +++++ = sehr gute Wirkung = 90 % Ueberlebende am 6.Tag p.i. • ++++ = gute Wirkung = 80 % Ueberlebende am 6.Tag p.i. • +++ = Wirkung = 60 % Ueberlebende am 6.Tag p.i. • ++ = schwache Wirkung = 40 % Ueberlebende am 6.Tag p.i. • + = Spur Wirkung = k.W. = keine Wirkung

[1] = system: Trichophyton mentagrophytes; test: Antimycotic in-vivo activity (local) in experimental guinea pig trichophytosis; design: species or system Meerschweinchen; key to Wirkung: +++++: sehr gute Wirkung = keine Infektionszeichen am 12.-15.Tag p.i.; ++++: gute Wirkung = geringe Rötung, vereinzelt Schuppen; +++: Wirkung = Rötung, Schuppung, ohne Haarausfall; ++: schwache Wirkung = Rötung, Schuppung, Haarausfall; +: Spur Wirkung = flächiger Haarausfall, entzündliche Hautreaktion; settings: for Wirkungen: local treatment; for Wirkung: local treatment 1x daily from day 3 p.i. with a 15% solution in dimethylsulfoxide : glycerol = 1 : 4, signs of infection day 12-15 p.i.
[2] = system: Dermatophyten und Schimmelpilze, Hefen; test: Antimycotic in-vitro activity, serial dilution test, overall comparison with known compounds; format: cell-based; settings: compared with known compounds (A),(B),(C) and (D)
Procedure: as §1, §2

[3] = mice infected i.v. with 1 - 2 x 10^6 Candida cells, oral 50 - 100 mg/kg one hour before and seven hours after infection, survivors on day 6 p.i.
[4] = mouse candidosis, oral, compared with known compounds (A), (B), (C) and (D)

Compound | MIC (Trichophyton mentagr.) | MIC (Candida albicans) | MIC (Microsporum canis) | MIC (Torulopsis glabrata) | MIC (Aspergillus fumig.) | Wirkung (Candida-Zellen; [3]) | Wirkung (Candida-Zellen; [4]) | Wirkungen [1] | Wirkung [1] | antimykotische Wirkung [2] | MHK-Werte in γ/ml Nährmedium, Candida albicans (Candida albicans) | MHK-Werte in γ/ml Nährmedium, Microsporum canis (Microsporum canis) | MHK-Werte in γ/ml Nährmedium, Torulopsis glabrata (Torulopsis glabrata) | MHK-Werte in γ/ml Nährmedium, Trichophyton mentagr. (Trichophyton mentagr.) | MHK-Werte in γ/ml Nährmedium, Aspergillus fumig. (Aspergillus fumig.; 96 hours)
CC(n1cncn1)C(O)(Cc1ccc(Cl)cc1)c1ccc(Oc2ccc(Cl)cc2)cc1 (stereo not drawn) [Beispiel 45] | 2 µg/mL (≈ 4.4 µM) | < 1 µg/mL | 32 µg/mL (≈ 70.4 µM) | < 1 µg/mL | > 64 µg/mL | + | bessere Wirkung | bestimmte Wirkungen | + | bessere antimykotische Wirkung |  |  |  |  | 
C=CCC(O)(c1ccc(Oc2ccc(Cl)cc2)cc1)C(CCC)n1cncn1 (stereo not drawn) [Beispiel 46] | < 1 µg/mL | < 1 µg/mL | 8 µg/mL (≈ 20.1 µM) | 8 µg/mL (≈ 20.1 µM) | 32 µg/mL (≈ 80.4 µM) | ++++ (gute Wirkung = 80 % Ueberlebende am 6.Tag p.i.) | bessere Wirkung |  | + | bessere antimykotische Wirkung |  |  |  |  | 
CCCC(C(=O)c1ccc(Oc2ccc(Cl)cc2)cc1)n1cncn1 (stereo not drawn) [Beispiel 6] |  |  |  |  |  | +++ (Wirkung = 60 % Ueberlebende am 6.Tag p.i.) | bessere Wirkung | bestimmte Wirkungen | ++++ |  |  |  |  |  | 
CCC(C(O)c1ccc(Oc2ccc(Cl)cc2)cc1)n1cncn1 (single isomer, unassigned) [Beispiel 29] | < 1 µg/mL |  |  |  | 32 µg/mL (≈ 93.1 µM) | +++++ (sehr gute Wirkung = 90 % Ueberlebende am 6.Tag p.i.) | bessere Wirkung | bestimmte Wirkungen | +++ | bessere antimykotische Wirkung | 8 µg/mL | 8 µg/mL | 8 µg/mL |  | 
CCCC(C(O)c1ccc(Oc2ccc(Cl)cc2)cc1)n1cncn1 (single isomer, unassigned) [Beispiel 32] |  |  |  |  |  | +++++ (sehr gute Wirkung = 90 % Ueberlebende am 6.Tag p.i.) | bessere Wirkung | bestimmte Wirkungen | +++ |  |  |  |  |  | 
CCC(C(O)c1ccc(Oc2ccc(Cl)cc2)cc1)n1cncn1 (single isomer, unassigned) [Beispiel 30] |  |  |  |  |  | +++ (Wirkung = 60 % Ueberlebende am 6.Tag p.i.) | bessere Wirkung | bestimmte Wirkungen | ++ | bessere antimykotische Wirkung | <1 µg/mL | 32 µg/mL | <1 µg/mL | <1 µg/mL | >64 µg/mL

More lines, main results first:

MIC (Trichophyton mentagr.) | MIC (Candida albicans) | MIC (Microsporum canis) | MIC (Torulopsis glabrata) | MIC (Aspergillus fumig.) | Compound | Wirkung (Candida-Zellen; [3]) | Wirkung (Candida-Zellen; [4]) | Wirkungen [1] | Wirkung [1] | antimykotische Wirkung [2] | MHK-Werte in γ/ml Nährmedium, Candida albicans (Candida albicans) | MHK-Werte in γ/ml Nährmedium, Microsporum canis (Microsporum canis) | MHK-Werte in γ/ml Nährmedium, Torulopsis glabrata (Torulopsis glabrata) | MHK-Werte in γ/ml Nährmedium, Trichophyton mentagr. (Trichophyton mentagr.) | MHK-Werte in γ/ml Nährmedium, Aspergillus fumig. (Aspergillus fumig.; 96 hours)
< 1 µg/mL | < 1 µg/mL | 8 µg/mL (≈ 24.3 µM) | 2 µg/mL (≈ 6.06 µM) | 32 µg/mL (≈ 97 µM) | CC(C(O)c1ccc(Oc2ccc(Cl)cc2)cc1)n1cncn1 (stereo not drawn) [Beispiel 35] | +++ (Wirkung = 60 % Ueberlebende am 6.Tag p.i.) | bessere Wirkung | bestimmte Wirkungen | +++ | bessere antimykotische Wirkung |  |  |  |  | 
< 1 µg/mL | < 1 µg/mL | 8 µg/mL (≈ 24.3 µM) | < 1 µg/mL | 8 µg/mL (≈ 24.3 µM) | Cc1cccc(Cl)c1Oc1ccc(C(O)Cn2cncn2)cc1 (stereo not drawn) [Beispiel 47] | ++++ (gute Wirkung = 80 % Ueberlebende am 6.Tag p.i.) | bessere Wirkung | bestimmte Wirkungen | ++++ | bessere antimykotische Wirkung |  |  |  |  | 
< 1 µg/mL | < 1 µg/mL | 16 µg/mL (≈ 43 µM) | 4 µg/mL (≈ 10.8 µM) | > 64 µg/mL | CCCC(n1cncn1)C(C)(O)c1ccc(Oc2ccc(Cl)cc2)cc1 (stereo not drawn) [Beispiel 43] | +++++ (sehr gute Wirkung = 90 % Ueberlebende am 6.Tag p.i.) | bessere Wirkung | bestimmte Wirkungen | +++ | bessere antimykotische Wirkung |  |  |  |  | 
4 µg/mL (≈ 11.7 µM) | 4 µg/mL (≈ 11.7 µM) | 4 µg/mL (≈ 11.7 µM) | 8 µg/mL (≈ 23.5 µM) | 8 µg/mL (≈ 23.5 µM) | CCC(C(=O)c1ccc(Oc2ccc(Cl)cc2)cc1)n1ccnc1 (stereo not drawn) [Beispiel 24] | +++ (Wirkung = 60 % Ueberlebende am 6.Tag p.i.) | bessere Wirkung | bestimmte Wirkungen | +++ | bessere antimykotische Wirkung |  |  |  |  | 
